Entries after “also recorded” stand apart in the source; their conditions may differ.
Columns and labels:
[1] = tested on: RAW 264.7 mouse macrophages; test: Proteome profiler cytokine release assay in RAW 264.7 macrophages; type: cell-based; conditions: stimulus C5a 10 nM or Paclitaxel 10 nM, 24 h; DF3966A 10 μM, anti C5aR Ab 50 nM, Avacopan 10 μM
Experimental: RAW 264.7 (ATTC TIB-71) mouse macrophages were cultured following manufacturer's instructions using DMEM medium (Euroclone, MI, Italy) supplemented with 10% FBS (non-heat inactivated) (ATCC, USA) at 37° C., in a humidified 95% air-5% CO2 atmosphere and then were seeded at 1*10^4 cells/cm^2.
(§1) After 24 hours, cells were treated with C5a (diluted in medium) (10 nM, R&D, USA), Paclitaxel (diluted in medium) (10 nM, Sigma, USA) in the absence and in the presence of the C5a inhibitor DF3966A (10 μM), and anti C5aR Ab (BioLegend, CA, USA; 50 nM) or Avacopan (10 μM) for 24 hours, then the media was replaced with culture media (5 ml) for 24 h and then collected.
(§2) Conditioned media were centrifugated to remove particulates and assayed immediately. […] The reagents were prepared following manufacturer's protocols (R&D, USA). Briefly, the membranes were incubated with Array Buffer 6 for 1 hour on a rocking platform shaker. The samples were prepared by adding up to 1 ml of Array Buffer 4 in two separated tubes and then 15 microl of reconstituted mouse cytokine detection antibody cocktail (>40 mouse cytokines) to each prepared sample and incubated 1 hour. Then, the Array Buffer 6 was aspirated and replaced with the sample/antibody mixtures and incubated at 4° C. overnight. The following day, membranes were washed 3 times and Streptavidin-HRP (1:2000) was incubated for 30 minutes at room temperature on a rocking platform shaker. The membranes were washed again, and 1 ml of prepared Chemi Reagent mix was placed onto each membrane. Multiple exposure times were acquired using UVITEC digital analyzer (Alliance, Cambridge, UK).
(§3) The positive signals seen in the developed membranes can be identified by placing the transparency overlay template on the array image and aligning it with pairs of reference spots in the three corners of each array (see FIG. 10). […] Pixel densities (average signals of pair of duplicates which represent each cytokine) were analyzed by ImageJ and the average background was subtracted from each spot.
(§4) In details, the profiling of cytokines released (>40 cytokines) from RAW 264.7 and human macrophages challenged with paclitaxel (Sigma-Aldrich; 10 nM) or C5a (R&D Systems, Inc. MN, USA; 10 nM) for 24 h using a proteome profiler assay. […] The experimental assay is explained in example 4.
(§5) For the human macrophages, human XL Cytokine Array kit #Ary022B was used, while for murine macrophages mouse cytokine Array Panel A #Ary006 was used (R&D systems, USA).

[2] = tested on: human (THP-1) macrophages; test: Proteome profiler cytokine release assay in human macrophages; type: cell-based; conditions: human macrophages; stimulus C5a 10 nM or paclitaxel 10 nM, 24 h
Experimental: as §1, §2, §3, §4, §5

[3] = tested on: paclitaxel-induced HSRs in mice; test: Prevention of paclitaxel-induced HSRs in vivo by C5aR1 inhibition (Example 8); conditions: 30 mg/kg, os; for increment of serum concentration of complement 5b-9 (SC5b-9) / increment of serum concentration of histamine: pre-treatment, paclitaxel-treated mice, ELISA; for paclitaxel-induced increase of plasma extravasation / paclitaxel-induced increase of vascular leakage: DF3966A 3 h, Avacopan 1 h before paclitaxel 20 mg/kg iv in Cremophor EL
Experimental: ) was intravenousely administrated at 20 mg/kg (0.1 mL/Kg) dissolved in Cremophor EL (polyoxyl 35 castor oil, Sigma-Aldrich, cod. 238470). […] Cremophor alone (Cremophor) was used as a control. […] Intracardiac injection was done to obtain blood in tubes and leaving it undisturbed at room temperature. Serum was separated from blood cells 30 minutes later by centrifugation (2000×g for 10 min, at 4° C.). Aliquots were prepared and stored at -20° C. ELISA kit was used to evaluate the following marker: histamine and SC5b-9 (Mybiosource, San Diego, USA Cat.No: MBS9361379, MBS725193).

## Cc1ccc(NC(=O)[C@H]2CCCN(C(=O)c3c(C)cccc3F)[C@H]2c2ccc(NC3CCCC3)cc2)cc1C(F)(F)F [Avacopan, (2R,3S)-2-[4-(Cyclopentylamino)phenyl]-1-(2-fluoro-6-methylbenzoyl)-N-[4-methyl-3-(trifluoromethyl)phenyl]piperidine-3-carboxamide]
[1]
  effect on C5a- and paclitaxel-induced cytokine release: inhibited; also recorded: counteracted
[2]
  effect on C5a- and paclitaxel-induced cytokine release: effectively counteracted
[3]
  increment of serum concentration of complement 5b-9 (SC5b-9): significatively reduced
  increment of serum concentration of histamine: significatively reduced
  paclitaxel-induced increase of plasma extravasation: abolishing
  paclitaxel-induced increase of vascular leakage: abolishing

## C[C@H](c1ccc(Nc2nc(C(F)(F)F)cs2)cc1)c1nn[nH]n1 [DF3966A, 5-[(1R)-1-(4-{[4-(trifluoromethyl)-1,3-thiazol-2-yl]amino}phenyl)ethyl]tetrazol-2-ide]
[1]
  effect on C5a- and paclitaxel-induced cytokine release: inhibited; also recorded: counteracted
[2]
  effect on C5a- and paclitaxel-induced cytokine release: effectively counteracted
[3]
  increment of serum concentration of complement 5b-9 (SC5b-9): significatively reduced
  increment of serum concentration of histamine: significatively reduced
  paclitaxel-induced increase of plasma extravasation: abolishing
  paclitaxel-induced increase of vascular leakage: abolishing
